Columns and labels:
[1] = test system: aquatic trophic levels (fish, crustaceous, algae); assay: Acute aquatic toxicity (aquatic trophic levels); type: in vivo; conditions: L(E)C50/SFacute
Text: (§1) A comparison of the relative aquatic toxicity profile of the long-chain alkyl hydroxyalkyl cellulose derivative compared to anionic alketh surfactant is shown in Table 3.
(§2) The terms used are defined as follows: • LC50 or EC50: Lethal or effect concentration 50=Concentration in water having 50% chance of causing adverse effects or death to aquatic life) • SFacute: Safety Factor, determined according the number of trophic levels (fish, crustaceous, algae) studied (the largest, the best) • TFacute: L(E)C50/SFacute • NOEC: No observed effect concentration=The highest concentration for which the difference from the control group is not statistically significant in a long term study • SFchronic: Safety Factor, determined according the number of trophic levels (fish, crustaceous, algae) studied • TFchronic: NOEC/SFchronic

[2] = test system: aquatic trophic levels (fish, crustaceous, algae); assay: Chronic aquatic toxicity (aquatic trophic levels); type: in vivo
Text: as §1, §2

C 12/15 A 1-3 EO sulfate gave a TFacute [1] of 0.0041, a TFchronic ([2]; NOEC/SFchronic) of 0.01 and an NOEC ([2]; chronic toxicity, long term study) of 0.1.
